According to publication PMC5376947, “Cytotoxicity of Zardaverine in Embryonal Rhabdomyosarcoma from a Costello Syndrome Patient” (Frontiers in Oncology, 2017):
Read-outs that look alike come from different tables or passages of the source.

Legend:
[1] = test system: CS242 ERMS (screening) cells; test: CS242 ERMS (screening) cell viability assay, CellTiter-Glo, 72 h; details: 72 h, 72 h, top 18.8, 75 or 93.8 μM, mean ± SD (n = 3)
Description: To generate cells optimized for high-throughput screening (HTS), one vial of frozen cells from the CS242 ERMS (initial) master cell bank was thawed in a 37°C water bath for 2 min, diluted by dropwise addition of 10 volumes of PBS, pelleted at 200 × g for 5 min, resuspended in PBS, pelleted, resuspended in medium, and transferred to a T75 flask. Cells were grown to 70% confluence over 27 days, with media changes every 3 days. Cells were then detached by trypsin treatment as described above [see CS242 ERMS (Initial)] and split at 1:20 into T150 flasks, giving 20 individual cultures at passage 7. After growth for a further 27 days with media changes every 3 days, cells reached 70% confluence and were detached and frozen as described above [see CS242 ERMS (Initial)] to give a working cell bank at passage 8.
Cell growth in 384-well plates was assessed daily for 5 days to determine the optimal starting cell number giving progressive growth suitable for a 72-h cell viability assay. One vial of CS242 ERMS cells was thawed from the screening bank and grown in a T75 flask until confluence was >70%, after which cells were detached using trypsin and counted as described above [see CS242 ERMS (Zardaverine Resistant)].
Using an electronic 16-channel pipettor (Finnpipette Novus MCP16), 40 μl of each cell dilution was dispensed into two columns of a TC-treated opaque white 384-well plate, giving a range of 10,000 to 78 cells/well. Columns 1, 2, 23, and 24 were filled with media alone (40 μl/well). Five replicate plates were covered with MicroClime environmental lids (Labcyte) to minimize evaporation and incubated at 37°C, 5% CO2 for 24, 48, 72, 96, and 120 h, respectively. A sixth plate was prepared for determination of cell viability at the time of cell seeding. To determine cell viability, plates were allowed to cool to room temperature for 1 h after removal from 37°C incubation, 20 μl/well of CellTiter-Glo was added using a MicroFlo Select microplate reagent dispenser (BioTek, Winooski, VT, USA), and luminescence was measured after an additional 30 min at room temperature using an EnVision microplate reader (PerkinElmer, Waltham, MA, USA).
The IC50 of dactinomycin was determined using cells passaged once from the CS242 ERMS (screening) cell bank [see CS242 ERMS (Screening)]. Cells were thawed, grown to 70% confluence over 3 days in a T75 flask, detached by trypsin treatment, seeded at 1,250 cells in 30 μl of media/well in 384-well opaque white TC plates, and allowed to attach overnight. […] After 72 h of cell growth in the presence of dactinomycin, 20 μl of CellTiter-Glo was added, and cell viability was determined as described above (see Cell Viability Assay Development). Percent viability was determined from luminescence values using high controls (no dactinomycin) and low controls (media alone; no cells), and IC50 values were calculated using four-parameter dose–response curve fitting analysis in GraphPad Prism.
The 2,000-compound Microsource Spectrum library was screened using a fresh batch of CS242 ERMS (screening) cells for each HTS run, prepared as described above (see Cell Viability Assay Development). […] Media alone was added to low control (background) wells in columns 2 and 24. Plates were covered using MicroClime environmental lids (Labcyte), and cells were allowed to attach overnight (≤12 h) at 37°C in an atmosphere of 5% CO2.
Compounds were delivered to columns 3–22 of assay plates containing attached cells via an intermediate dilution. […] Likewise, DMSO was added to columns 1, 2, 23, and 24 for high and low controls, matching the 0.06% DMSO in the test wells.

[2] = test system: PDE4; details: PDE 4, read-out: Reported PDE inhibition IC50, cited from earlier work
[3] = test system: PDE3; details: PDE 3, read-out: Reported PDE inhibition IC50, cited from earlier work
[4] = test system: glucocorticoid receptor (GR) activation; set-up: method as in earlier work; details: 18 h treatment; ref [30]; cited from earlier work
[5] = Homo sapiens, read-out: CS242 ERMS viability IC50, Table 3 PDE inhibitor panel
[6] = read-out: CS242 ERMS viability IC50, Table 3 PDE inhibitor panel

COc1ccc([C@H](Cc2ccncc2)c2ccccc2)cc1OC1CCCC1 [CDP 840]
IC50 [1, 5]: 27800 nM | IC50 ([2]; ref [15]): 12 nM

CN(C(=O)CCCOc1ccc2[nH]c(=O)ccc2c1)C1CCCCC1 [Cilostamide]
IC50 [1, 5]: > 18800 nM | IC50 ([3]; ref [19], [20]): 27 nM | activity in GR activation screen, in words [4]: inactive

O=C1CCc2cc(OCCCCc3nnnn3C3CCCCC3)ccc2N1 [Cilostazol]
IC50 [1, 5]: > 93800 nM | IC50 ([3]; ref [24]): 200 nM

CCCn1c(=O)c(C)cn2nc(N)nc12 [ICI 63197]
IC50 [1, 6]: > 93800 nM | IC50 ([2]; ref [26]): 35 nM

Cc1[nH]c(=O)c(C#N)cc1-c1ccncc1 [Milrinone]
IC50 [1, 5]: > 18800 nM | IC50 ([3]; ref [21]): 56 nM

COc1ccc(C(=O)Nc2c(Cl)cncc2Cl)cc1OC1CCCC1 [Piclamilast]
IC50 [1, 5]: 55800 nM | IC50 ([2]; ref [17]): 1 nM

O=c1c2cccnc2n(-c2cccc([N+](=O)[O-])c2)c(=O)n1Cc1ccncc1 [RS 25344]
IC50 [1, 6]: > 93800 nM | IC50 ([2]; ref [25]): 0.28 nM

CCCCOc1cc(CC2CNC(=O)N2)ccc1OC (stereo not shown) [Ro 20-1724]
IC50 [1, 6]: > 18800 nM | IC50 ([2]; ref [23]): 2000 nM

CN/C(=N\c1ccc(C2=NNC(=O)CC2C)cc1)NC#N (stereo not shown) [Siguazodan]
IC50 [1, 5]: > 93800 nM | IC50 ([3]; ref [21]): 117 nM

COc1cc2c(cc1OC)-c1c/c(=N\c3c(C)cc(C)cc3C)n(C)c(=O)n1CC2 [Trequinsin]
IC50 [1, 5]: 36500 nM | IC50 ([3]; ref [16]): 0.25 nM

CCc1ccc2c(-c3cccc(Cl)c3)nc(=O)n(CC)c2n1 [YM 976, 4-(3-chlorophenyl)-1,7-diethylpyrido[2,3-d]pyrimidin-2(1H)-one]
IC50 [1, 5]: 60700 nM | IC50 ([2]; ref [18]): 2.2 nM

(R)-(−)-rolipram
IC50 [1, 6]: > 18800 nM | IC50 ([2]; ref [22]): 220 nM
